Like-named read-outs stand apart in the source and are kept apart here.
Legend:
[1] = target: EGFR L858R/T790M (H1975 cells) (Homo sapiens (Human), UniProt P00533, L858R/T790M); assay: Phospho-EGFR signaling immunoblot (1 hr), H1975 cells; type: cell-based; conditions: WT EGFR (A431) vs H1975
Method: (§1) A431 human epidermoid carcinoma, H1975 human NSCLC and HCC827 human NSCLC adenocarcinoma cells were obtained from the American Type Culture Center (Manassas, Va.). A431 cells were grown in DMEM (Invitrogen, Carlsbad, Calif.) supplemented with 10% FBS (HyClone, South Logan, Utah) and 1% Penicillin-Streptomycin (P/S, Lonza, Walkersville, Md.).
All primary antibodies were obtained from Cell Signaling (Danvers, Mass.) and used at 1:1000. Secondary antibodies were used at 1:10,000. Goat anti-mouse IgG IRDye 800CW antibody was obtained from LiCor Biosciences (Lincoln, Nebr.) and goat anti-rabbit IgG Alexa Fluor 680 was obtained from Invitrogen.
Cells were grown in 12-well plates (Corning, Coring, N.Y.) to 90% confluence and then incubated in low-serum (0.1% FBS) media for 16-18 hr. […] A431 cells were then stimulated with 50 ng/ml EGF (Peprotech, Rocky Hill, N.J.) for 15 min. After treatment, cell monolayers were washed with cold PBS (Invitrogen) and immediately lysed by scrapping into 60 uL cold Cell Extraction Buffer (Invitrogen) supplemented with Complete Protease inhibitors (Roche, Indianapolis, Ind.) and PhosphoSTOP (Roche) phosphatase inhibitors.
Phospho-protein signals were quantitated using Odyssey Infrared Imaging (Li-Cor Biosciences).
To assess phosphor-EGFR signaling, blots were probed with rabbit anti-Phospho-EGFR (Y1068) and mouse total anti-EGFR antibodies. Phospho-EGFR signal was normalized to total EGFR expression for each sample. […] Normalized data was fitted using a sigmoidal curve analysis program (Graph Pad Prism version 5) with variable Hill slope to determine the EC50 values.

[2] = system: H1975 cells (EGFR L858R/T790M); assay: Cell proliferation (CellTiter Glo, 72 hr), H1975 cells; type: cell-based, human
Method: as §1
(§2) Cells were plated in Growth Media supplemented with 5% FBS and 1% P/S at a density of 3,000 cells per well in 96 well tissue culture plates (Corning). […] Growth inhibition (GI50) values were determined by Graph Pad Prism.

[3] = system: HCC827 cells (EGFR delE746-A750); assay: Cell proliferation (CellTiter Glo, 72 hr), HCC827 cells; type: cell-based, human
Method: as §1, §2

[4] = proliferation, WT EGFR (A431) vs H1975
[5] = proliferation, WT EGFR (A431) vs HCC827

Row | Ratio WT/mutant [1] | Compound | Ratio WT/mutant [2, 4] | Ratio WT/mutant [3, 5] | Ratio WT/mutant [2] | Ratio WT/mutant [3]
1 | >50 | C=CC(=O)Nc1cccc(Oc2nc(Nc3ccc(N4CCOCC4)cc3OC)ncc2C(F)(F)F)c1 [Compound I-1, N-(3-(2-(2-methoxy-4-morpholinophenylamino)-5-(trifluoromethyl)pyrimidin-4-yloxy)phenyl)acrylamide] | >15 | >15 |  | 
2 | >5 | C=CC(=O)Nc1cccc(Oc2nc(Nc3ccc(N4CCN(C(=O)CO)CC4)cc3OC)ncc2Cl)c1 [Compound I-3, N-(3-(5-chloro-2-(4-(4-(2-hydroxyacetyl)piperazin-1-yl)-2-methoxyphenylamino)pyrimidin-4-yloxy)phenyl)acrylamide] | >5 | >45 |  | 
3 | >30 | C=CC(=O)Nc1cccc(Oc2nc(Nc3ccc(N4CCOCC4)cc3OC)ncc2Cl)c1 [Compound I-5, N-(3-(5-chloro-2-(2-methoxy-4-morpholinophenylamino)pyrimidin-4-yloxy)phenyl)acrylamide] | >5 | >20 |  | 
4 | >20 | C=CC(=O)Nc1cccc(Nc2nc(Nc3ccc(N4CCN(C(=O)CO)CC4)cc3OC)ncc2C(F)(F)F)c1 [Compound I-6, N-(3-(2-(4-(4-(2-hydroxyacetyl)piperazin-1-yl)-2-methoxyphenylamino)-5-(trifluoromethyl)pyrimidin-4-ylamino)phenyl)acrylamide] | >10 | >40 |  | 
5 | >5 | C=CC(=O)Nc1cccc(Nc2nc(Nc3ccc(N4CCCN(C(C)=O)CC4)cc3OC)ncc2C(F)(F)F)c1 [Compound I-7, N-(3-(2-(4-(4-acetyl-1,4-diazepan-1-yl)-2-methoxyphenylamino)-5-(trifluoromethyl)pyrimidin-4-ylamino)phenyl)acrylamide] | >1 | >10 |  | 
6 | >1 | C=CC(=O)Nc1cccc(Nc2nc(Nc3ccc(N4CCN(C(C)=O)CC4)cc3OC)ncc2Cl)c1 [Compound I-8, N-(3-(2-(4-(4-acetylpiperazin-1-yl)-2-methoxyphenylamino)-5-chloropyrimidin-4-ylamino)phenyl)acrylamide] | >1 | >20 |  | 
7 |  | C=CC(=O)Nc1cccc(Oc2nc(Nc3ccc(N4CCN(C(C)=O)CC4)cc3OC)ncc2Cl)c1 [Compound I-9, N-(3-(2-(4-(4-acetylpiperazin-1-yl)-2-methoxyphenylamino)-5-chloropyrimidin-4-yloxy)phenyl)acrylamide] | >5 | >50 |  | 
8 |  | C=CC(=O)Nc1cccc(Oc2nc(Nc3ccc(N4CCN(C(C)=O)CC4)cc3OC)ncc2C(F)(F)F)c1 [Compound I-10, N-(3-(2-(4-(4-acetylpiperazin-1-yl)-2-methoxyphenylamino)-5-(trifluoromethyl)pyrimidin-4-yloxy)phenyl)acrylamide] | >1 | >20 |  | 
9 |  | C=CC(=O)Nc1cccc(Oc2nc(Nc3ccc(N4CCOCC4)cc3OC(F)F)ncc2C(F)(F)F)c1 [Compound I-13, N-(3-(2-(2-(difluoromethoxy)-4-morpholinophenylamino)-5-(trifluoromethyl)pyrimidin-4-yloxy)phenyl)acrylamide] | >10 | >50 |  | 
10 |  | C=CC(=O)Nc1cccc(Nc2nc(Nc3ccc(N4CCOCC4)cc3OC)ncc2Cl)c1 [Compound I-15, N-(3-(5-chloro-2-(2-methoxy-4-morpholinophenylamino)pyrimidin-4-ylamino)phenyl)acrylamide] | >1 | >10 |  | 
11 |  | C=CC(=O)Nc1cccc(Oc2nc(Nc3ccc(N4CCN(C(=O)OC(C)(C)C)CC4)cc3OCC)ncc2Cl)c1 [Compound I-18, tert-butyl 4-(4-(4-(3-acrylamidophenoxy)-5-chloropyrimidin-2-ylamino)-3-ethoxyphenyl)piperazine-1-carboxylate] | >1 | >5 |  | 
12 |  | C=CC(=O)Nc1cccc(Nc2nc(Nc3ccc(N4CCCN(C(=O)C(F)(F)F)CC4)cc3OC)ncc2C(F)(F)F)c1 [Compound I-19, N-(3-(2-(2-methoxy-4-(4-(2,2,2-trifluoroacetyl)-1,4-diazepan-1-yl)phenylamino)-5-(trifluoromethyl)pyrimidin-4-ylamino)phenyl)acrylamide] | >5 | >10 |  | 
13 |  | C=CC(=O)Nc1cccc(Oc2nc(Nc3ccc(N4CCN(C(=O)OC)CC4)cc3OC)ncc2C(F)(F)F)c1 [Compound I-20, methyl 4-(4-(4-(3-acrylamidophenoxy)-5-(trifluoromethyl)pyrimidin-2-ylamino)-3-methoxyphenyl)piperazine-1-carboxylate] |  |  | >5 | >15
14 |  | C=CC(=O)Nc1cccc(Oc2nc(Nc3ccc(N4CCN(C(=O)CC(C)(C)C)CC4)cc3OC)ncc2Cl)c1 [Compound I-23, N-(3-(5-chloro-2-(4-(4-(3,3-dimethylbutanoyl)piperazin-1-yl)-2-methoxyphenylamino)pyrimidin-4-yloxy)phenyl)acrylamide] | >1 | >20 |  | 
15 |  | C=CC(=O)Nc1cccc(Oc2nc(Nc3ccc(N4CCN(S(N)(=O)=O)CC4)cc3OC)ncc2C(F)(F)F)c1 [Compound I-27, N-(3-(2-(2-methoxy-4-(4-sulfamoylpiperazin-1-yl)phenylamino)-5-(trifluoromethyl)pyrimidin-4-yloxy)phenyl)acrylamide] | >1 | >10 |  | 
16 |  | C=CC(=O)Nc1cccc(Nc2nc(Nc3ccc(N4CCN(C(=O)NC)CC4)cc3OC)ncc2C(F)(F)F)c1 [Compound I-28, 4-(4-(4-(3-acrylamidophenylamino)-5-(trifluoromethyl)pyrimidin-2-ylamino)-3-methoxyphenyl)-N-methylpiperazine-1-carboxamide] | >5 | >50 |  | 
17 |  | C=CC(=O)Nc1cccc(Nc2nc(Nc3ccc(N4CCN(C(=O)OC)CC4)cc3OC)ncc2C(F)(F)F)c1 [Compound I-29, methyl 4-(4-(4-(3-acrylamidophenylamino)-5-(trifluoromethyl)pyrimidin-2-ylamino)-3-methoxyphenyl)piperazine-1-carboxylate] | >10 | >15 |  | 
18 |  | C=CC(=O)Nc1cccc(Nc2nc(Nc3ccc(N4CCN(C(=O)CC)CC4)cc3OC)ncc2C(F)(F)F)c1 [Compound I-35, N-(3-(2-(2-methoxy-4-(4-propionylpiperazin-1-yl)phenylamino)-5-(trifluoromethyl)pyrimidin-4-ylamino)phenyl)acrylamide] | >10 | >25 |  | 
19 |  | C=CC(=O)Nc1cccc(Oc2nc(Nc3ccc(N4CCOCC4)cc3OC(F)F)ncc2Cl)c1 [Compound I-36, N-(3-(5-chloro-2-(2-(difluoromethoxy)-4-morpholinophenylamino)pyrimidin-4-yloxy)phenyl)acrylamide] | >25 | >50 |  | 
20 |  | C=CC(=O)Nc1cccc(Oc2nc(Nc3ccc(N4CCCOCC4)cc3OC)ncc2Cl)c1 [Compound I-37, N-(3-(5-chloro-2-(2-methoxy-4-(1,4-oxazepan-4-yl)phenylamino)pyrimidin-4-yloxy)phenyl)acrylamide] | >1 | >10 |  | 
21 |  | C=CC(=O)Nc1cccc(Nc2nc(Nc3ccc(N4CCCOCC4)cc3OC)ncc2C(F)(F)F)c1 [Compound I-38, N-(3-(2-(2-methoxy-4-(1,4-oxazepan-4-yl)phenylamino)-5-(trifluoromethyl)pyrimidin-4-ylamino)phenyl)acrylamide] | >1 | >5 |  | 
22 |  | C=CC(=O)Nc1cccc(Oc2nc(Nc3ccc(N4CCCN(C(=O)OC(C)(C)C)CC4)cc3OC)ncc2C(F)(F)F)c1 [Compound I-39, tert-butyl 4-(4-(4-(3-acrylamidophenoxy)-5-(trifluoromethyl)pyrimidin-2-ylamino)-3-methoxyphenyl)-1,4-diazepane-1-carboxylate] | <1 | >1 |  | 
23 |  | C=CC(=O)Nc1cccc(Nc2nc(Nc3ccc(N4CCN(C(=O)OC(C)(C)C)[C@H](C(=O)OC)C4)cc3OC)ncc2C(F)(F)F)c1 [Compound I-50, (S)-1-tert-butyl 2-methyl 4-(4-(4-(3-acrylamidophenylamino)-5-(trifluoromethyl)pyrimidin-2-ylamino)-3-methoxyphenyl)piperazine-1,2-dicarboxylate] | >10 | >50 |  | 

Reference: US11096942B2, “Heterocyclic compounds and uses thereof” (Celgene CAR LLC, priority 2010, dated 2021)
